Holding throughout (type): functional, BaF3
Assay [1] is described as follows: Anticancer activity against mouse BA/F3 cells expressing JAK2 V617F mutation allografted in Harlan SCID mouse assessed as mean survival days at 60 mg/kg, po by luciferase reporter gene assay (reference value: 16 days). On the technique in general: Reporter assays use an easily measured gene product as a stand-in for the process of interest.
Assay [2] in a line: Anticancer activity against mouse BA/F3 cells expressing JAK2 V617F mutation allografted in Harlan SCID mouse assessed as increase in lifespan at 60 mg/kg, po by luciferase reporter gene assay relative to control.
Assay [3] can be described thus: Anticancer activity against mouse BA/F3 cells expressing JAK2 V617F mutation allografted in Harlan SCID mouse assessed as increase in lifespan at 45 mg/kg, po by luciferase reporter gene assay relative to control.
Assay [4] can be described thus: Anticancer activity against mouse BA/F3 cells expressing JAK2 V617F mutation allografted in Harlan SCID mouse assessed as mean survival days at 45 mg/kg, po by luciferase reporter gene assay (reference value: 16 days).

SMILES strings stand for the structures.

For the molecule `N#CC[C@H](C1CCCC1)n1cc(-c2ncnc3[nH]ccc23)cn1` [RUXOLITINIB], in assay [1], the MSD was 19 days. Moreover, the Activity in assay [2] was determined as 19%.
`Cn1c(=O)n(-c2ccc(C(C)(C)C#N)cc2)c2c3cc(-c4cnc5ccccc5c4)ccc3ncc21` [DACTOLISIB]: in assay [3], the Activity is recorded as 42%. In assay [4], the MSD is 24 days.

These data come from ChEMBL document CHEMBL2384975, “Combination Therapy: JAK PI3K/mTOR. A Novel Approach for Cancer Treatment” (2013).
